# In paper PMC9142856 (Heliyon, 2022):
# Biological target: dipeptidyl peptidase-IV (DPP-IV) (Homo sapiens, UniProt P27487)
# Assay: in vitro enzyme inhibition assay, Gly-Pro-p-nitroanilide substrate
# Format: biochemical
# dipeptidyl peptidase-IV (DPP-IV), sequence (P27487 39-766): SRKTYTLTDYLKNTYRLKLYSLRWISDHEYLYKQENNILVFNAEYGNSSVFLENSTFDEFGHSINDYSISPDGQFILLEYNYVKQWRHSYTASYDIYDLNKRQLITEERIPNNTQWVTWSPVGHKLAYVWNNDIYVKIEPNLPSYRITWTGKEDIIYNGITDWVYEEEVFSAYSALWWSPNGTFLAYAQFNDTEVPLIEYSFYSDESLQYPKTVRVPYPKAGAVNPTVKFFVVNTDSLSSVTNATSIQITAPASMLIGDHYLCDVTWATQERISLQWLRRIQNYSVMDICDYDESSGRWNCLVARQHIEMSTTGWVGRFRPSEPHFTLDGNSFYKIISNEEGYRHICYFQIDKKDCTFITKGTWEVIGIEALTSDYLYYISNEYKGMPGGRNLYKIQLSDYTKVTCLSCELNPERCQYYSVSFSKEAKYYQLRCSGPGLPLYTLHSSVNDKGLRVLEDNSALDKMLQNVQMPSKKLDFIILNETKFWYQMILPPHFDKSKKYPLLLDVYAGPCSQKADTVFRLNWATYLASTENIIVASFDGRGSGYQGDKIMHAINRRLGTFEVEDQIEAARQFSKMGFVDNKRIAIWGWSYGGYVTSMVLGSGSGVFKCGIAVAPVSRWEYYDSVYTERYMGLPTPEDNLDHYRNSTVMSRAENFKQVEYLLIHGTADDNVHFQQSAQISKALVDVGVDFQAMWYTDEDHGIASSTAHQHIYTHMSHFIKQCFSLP
smiles,measurement,value
"CC(C)=CCC/C(C)=C/Cc1c(O)ccc(C(=O)/C=C/c2ccc(O)cc2)c1O [XA, xanthoangelol]",IC50,10.5 µM
